Data as given in US20210308089A1, “METHODS OF TREATING AND/OR PREVENTING VIRAL INFECTIONS AND/OR DISEASES CAUSED BY VIRUSES IN A SUBJECT IN NEED THEREOF” (priority 2020, published 2021).

System: statin-treated hypertriglyceridemic patients with cardiovascular disease or at high risk for cardiovascular disease
Experiment: REDUCE-IT: time to first occurrence of adjudicated cardiovascular events (primary, secondary, tertiary endpoints), AMR101 4 g/day vs placebo
Assay type: in vivo, human
Description: The following study, also referred to as the REDUCE-IT clinical trial, was a large cardiovascular (CV) outcome trial designed to assess CV risk reduction benefit of AMR101 treatment (commercially known as VASCEPA®) versus placebo on the 5-point primary composite endpoint: CV death, nonfatal stroke, nonfatal myocardial infarction (MI), coronary revascularizations, or unstable angina requiring hospitalization.
A multi-center, prospective, randomized, double-blind, placebo-controlled, parallel-group study was performed to evaluate the effect of AMR101 (4 g per day) on cardiovascular health and mortality in hypertriglyceridemic patients with cardiovascular disease or at high risk for cardiovascular disease. The intended expanded indication of the study was treatment with AMR101 as an add-on to statin therapy to reduce the risk of cardiovascular events in patients with clinical cardiovascular disease or with multiple risk factors for cardiovascular disease.
The primary objective of this study was, in patients at LDL-C goal while on statin therapy, with established cardiovascular disease (CVD) or at high risk for CVD, and hypertriglyceridemia (e.g., fasting triglycerides(TG) ≥200 mg/dL and <500 mg/dL), to evaluate the effect of AMR101 4 g daily on time from randomization to first occurrence of any component of the composite of the following major CV events: CV death; nonfatal MI (including silent MI); electrocardiograms (ECGs) were performed annually for the detection of silent MIs); nonfatal stroke; coronary revascularization; and unstable angina determined to be caused by myocardial ischemia by invasive/non-invasive testing and requiring emergent hospitalization.
The key secondary objective of this study was to evaluate the effect of AMR101 4 g daily on the time from randomization to the first occurrence of the composite of following major CV events: CV death, nonfatal MI (including silent MI), and nonfatal stroke.
Other secondary objectives for this study were to evaluate the effect of therapy on time from randomization to the first occurrence of the following individual or composite endpoints: composite of CV death or nonfatal MI (including silent MI); fatal or nonfatal MI (including silent MI); non-elective coronary revascularization represented as the composite of emergent or urgent classifications; CV death; unstable angina determined to be caused by myocardial ischemia by invasive/non-invasive testing and requiring emergent hospitalization; fatal or nonfatal stroke; composite of total mortality, nonfatal MI (including silent MI), or nonfatal stroke; and total mortality.
Primary Efficacy Endpoint: The primary efficacy endpoint was time from randomization to the first occurrence of the composite of the following clinical events: CV death; nonfatal MI (including silent MI; ECGs were performed annually for the detection of silent MIs); nonfatal stroke; coronary revascularization; and unstable angina determined to be caused by myocardial ischemia by invasive/non-invasive testing and requiring emergent hospitalization. The first occurrence of any of these major adverse vascular events during the follow-up period of the study was included in the incidence.
Secondary Efficacy Endpoints: The key secondary efficacy endpoint was the time from randomization to the first occurrence of the composite of CV death, nonfatal MI (including silent MI), or nonfatal stroke. […]

[1] = REDUCE-IT ITT, listed as AMR101
[2] = REDUCE-IT ITT, time to first event
[3] = vs placebo, listed as Icosapent Ethyl

Compound: CC/C=C\C/C=C\C/C=C\C/C=C\C/C=C\CCCC(=O)OCC [icosapent ethyl, eicosapentaenoic acid ethyl ester]
- Amputation for PVD: % of patients (REDUCE-IT ITT): (0.5%)
- Cardiac arrest: % of patients (REDUCE-IT ITT): (0.5%)
- Cardiac arrhythmias requiring hospitalization of ≥24 hours: % of patients (REDUCE-IT ITT): (4.6%)
- Cardiovascular death: HR vs placebo (REDUCE-IT ITT): 0.80
- Cardiovascular death: patients (REDUCE-IT ITT): 4.3%
- Carotid revascularization: % of patients (REDUCE-IT ITT): (0.8%)
- Coronary revascularization: % of patients (REDUCE-IT ITT): (9.2%)
- Elective revascularization: % of patients (REDUCE-IT ITT): (4.7%)
- Emergent revascularization: % of patients (REDUCE-IT ITT): (1.0%)
- Hemorrhagic stroke: % of patients (REDUCE-IT ITT): (0.3%)
- Ischemic stroke: % of patients (REDUCE-IT ITT): (2.0%)
- New heart failure requiring hospitalization: % of patients (REDUCE-IT ITT): (3.4%)
- New heart failure: % of patients (REDUCE-IT ITT): (4.1%)
- Primary endpoint in patients with diabetes at baseline: % of patients (REDUCE-IT ITT): (18.1%)
- Salvage revascularization: % of patients (REDUCE-IT ITT): (0.0%)
- Sudden cardiac death: % of patients (REDUCE-IT ITT): (1.5%)
- Total mortality (death from any cause): patients (REDUCE-IT ITT): 6.7%
- Total mortality: HR vs placebo (REDUCE-IT ITT): 0.87
- Transient ischemic attack: % of patients (REDUCE-IT ITT): (1.6%)
- Urgent revascularization: % of patients (REDUCE-IT ITT): (4.4%)
- Hemorrhagic stroke: % of patients [1]: 0.3%
- New heart failure: % of patients [1]: 4.1%
- Key secondary composite endpoint: HR vs placebo [2]: 0.74
- Primary composite endpoint: HR vs placebo [2]: 0.75
- New onset of diabetes: % of patients (patients with diabetes at baseline excluded): (3.8%)
- Composite of cardiovascular death or nonfatal myocardial infarction: RRR (vs placebo): 25%
- Composite of total mortality, nonfatal myocardial infarction, or nonfatal stroke: reduction (RRR) (vs placebo): 23%
- Key secondary composite endpoint: relative risk reduction (vs placebo): 26%
- Primary composite endpoint: relative risk reduction (vs placebo): 25%
- Total mortality: reduction (RRR) (vs placebo): 13%
- Key secondary composite endpoint: relative risk reduction [3]: 26.5%
- Primary composite endpoint: relative risk reduction [3]: 24.8%
